Here are results for 23 compounds from US20250099448A1, “HETEROCYCLIC COMPOUNDS” (Hoffmann-La Roche Inc., priority 2022, published 2025).

For the assay, the target named is T1, MAGL protein (Homo sapiens, UniProt Q99685).
T1 sequence (Q99685 1-303): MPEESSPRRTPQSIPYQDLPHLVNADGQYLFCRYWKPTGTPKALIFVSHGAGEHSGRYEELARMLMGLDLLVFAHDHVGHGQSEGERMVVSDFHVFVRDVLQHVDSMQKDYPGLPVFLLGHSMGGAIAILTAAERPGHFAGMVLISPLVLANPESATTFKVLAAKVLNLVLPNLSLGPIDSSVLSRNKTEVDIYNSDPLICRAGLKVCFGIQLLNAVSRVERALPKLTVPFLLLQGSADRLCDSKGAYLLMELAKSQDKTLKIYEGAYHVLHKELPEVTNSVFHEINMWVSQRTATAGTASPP
The assay can be described thus: 2-AG assay: MAGL inhibitory activity by hydrolysis of 2-arachidonoylglycerol to arachidonic acid, followed by mass spectrometry. As to conditions: 8 μM 2-arachidonoylglycerol, 15 min preincubation, 30 min reaction at RT, RapidFire MS readout. The assay is classed as biochemical. The method in brief:
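MAGL was preincubated 15 min at RT with compound (12.5 to […], 3-fold steps) in 50 mM TRIS, 1 mM EDTA, 0.01% Tween-20, 2.5% DMSO. The reaction ran 30 min at RT with 8 μM 2-AG. Arachidonic acid was quantified by RapidFire SPE-MS/MS against a d8-arachidonic acid internal standard.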
Turning to `O=C(N1CC2(CC(c3nc(C4CC4)n[nH]3)C2)C1)N1CC2(CC(c3nc(C4CC4)n[nH]3)C2)C1` [compound 407], the IC50 turned out to be 9.24 nM.

`Cc1cc(C(F)(F)F)nn1-c1ccc(C2CN(C(=O)N3CC4(CC(c5nnc(C6(O)CC6)[nH]5)C4)C3)C2)cc1` [compound 408] yielded an IC50 of 1.46 nM.

Take `O=C(N1CC2(CC(Cn3nccc3C(F)(F)F)C2)C1)N1CC2(CC(c3nc(C4CC4)n[nH]3)C2)C1` [compound 410]: the IC50 came out at 0.14 nM.

For the compound `O=C(N1CC2(CC(c3ccc(S(=O)(=O)C(F)(F)F)cc3)C2)C1)N1CC2(CC(c3nnc(C4CC4)[nH]3)C2)C1` [compound 413], the IC50 worked out at 0.34 nM.

`CC(C)(C)c1ncc(CN2CC3(C2)CN(C(=O)N2CC4(CC(c5nc(C6CC6)n[nH]5)C4)C2)C3)s1` [compound 415] came in with an IC50 of 4.43 nM.

For the compound `O=C(N1CC2(CC(Cn3cc(C(F)(F)F)ccc3=O)C2)C1)N1CC2(CC(c3nc(C4(O)CC4)n[nH]3)C2)C1` [compound 417], the concentration for half-maximal inhibition (IC50) was determined as 6.2 nM. The IC50 values of the last two compounds are within 1.5-fold of each other.

Compound `O=C(N1CCC(C23CC(c4nnc(C5(C(F)(F)F)CC5)o4)(C2)C3)CC1)N1CC2(CC(c3nc(C4CC4)n[nH]3)C2)C1` [compound 418] showed a 50% inhibitory concentration (IC50) of 192 nM.

Regarding `O=C(N1CC(C23CC(c4ccc(S(=O)(=O)C(F)(F)F)cc4)(C2)C3)C1)N1CC2(CC(c3nc(C4(O)CC4)n[nH]3)C2)C1` [compound 419], the concentration for half-maximal inhibition (IC50) was determined as 0.5 nM.

`O=C(N1CC2(CC(Cc3ccc(S(=O)(=O)C(F)(F)F)cc3)C2)C1)N1CC2(CC(c3nc(C4CC4)n[nH]3)C2)C1` [compound 420] displayed a concentration for half-maximal inhibition (IC50) of 0.02 nM. Against the preceding compound, the IC50 is about 25-fold lower.

Compound `O=C(N1CC2(CCC(S(=O)(=O)c3cccc(C(F)(F)F)c3)CC2)C1)N1CC2(CC(c3nc(C4(O)CC4)n[nH]3)C2)C1` [compound 421] came in with an IC50 of 50.4 nM.

Take `O=C(N1CC(C23CC(c4nnc(C5(C(F)(F)F)CC5)o4)(C2)C3)C1)N1CC2(CC(c3nc(C4CC4)n[nH]3)C2)C1` [compound 422]: the IC50 is 14.3 nM. Compared with the last compound, the IC50 is about 3.5-fold lower.

As to `O=C(N1CC2(CC(Oc3nc(C(F)(F)F)cs3)C2)C1)N1CC2(CC(c3nc(C4CC4)n[nH]3)C2)C1` [compound 423], the midpoint of inhibition, the IC50, lay at 1.11 nM.

The compound `O=C(N1CC2(CC(Cc3cnc(C(F)(F)F)cn3)C2)C1)N1CC2(CC(c3nc(C4(F)CC4)n[nH]3)C2)C1` [compound 424] showed a 50% inhibitory concentration (IC50) of 0.46 nM.

In the case of `Cn1cc(OC2CC3(C2)CN(C(=O)N2CC4(CC(c5nc(C6CC6)n[nH]5)C4)C2)C3)c(C(F)(F)F)n1` [compound 425], 2.22 nM corresponded to half-maximal inhibition (IC50).

Compound `O=C(N1CC2(CC(c3nc(C4CC4)n[nH]3)C2)C1)N1CC2(CN(Cc3ccn(CC(F)(F)F)c(=O)c3)C2)C1` [compound 426] came in with an IC50 of 274 nM. Compared with the last compound, the IC50 is about 120-fold higher.

`O=C(N1CC2(CC(c3nc(C4(F)CC4)n[nH]3)C2)C1)N1CC2(CN(Cc3ccc(S(=O)(=O)C(F)(F)F)cc3)C2)C1` [compound 427] displayed an IC50 of 1.33 nM.

`Cc1cc(C(F)(F)F)n(CC2CC3(C2)CN(C(=O)N2CC4(CC(c5nc(C6CC6)n[nH]5)C4)C2)C3)n1` [compound 428] registered a half-inhibitory concentration (IC50) of 0.31 nM.

The compound `O=C(N1CC2(CC(c3nc(C4CC4)n[nH]3)C2)C1)N1CC2(CN(Cc3nc(C(F)(F)F)cs3)C2)C1` [compound 430] returned an IC50 of 5.22 nM. Against the preceding compound, the IC50 is about 17-fold higher.

`O=C(N1CC(c2cnc(OCC3(C(F)(F)F)CC3)cn2)C1)N1CC2(CC(c3nc(C4(F)CC4)n[nH]3)C2)C1` [compound 431] registered an IC50 of 0.39 nM. Against the preceding compound, the IC50 is about 13-fold lower.

For the compound `O=C(N1CC2(CCN(Cc3cc(C(F)(F)F)sn3)CC2)C1)N1CC2(CC(c3nc(C4CC4)n[nH]3)C2)C1` [compound 432], the IC50 was determined as 3.45 nM.

In the case of `N#Cc1cc(C(F)(F)F)ncc1CC1CC2(C1)CN(C(=O)N1CC3(CC(c4nnc(C5(O)CC5)[nH]4)C3)C1)C2` [compound 433], the half-inhibitory concentration (IC50) worked out at 0.9 nM.

Compound `O=C(N1CC2(CC(Oc3ccc(F)cn3)C2)C1)N1CC2(CC(c3nc(C4CC4)n[nH]3)C2)C1` [compound 434] showed an IC50 of 5.52 nM.

`O=C(N1CC2(CCC(S(=O)(=O)c3cccc(C(F)(F)F)c3)CC2)C1)N1CC2(CC(c3nc(C4CC4)n[nH]3)C2)C1` [compound 435] gave an IC50 of 3.95 nM.
